Laboratory results published in publication PMC5218480 (PLoS ONE, 2017).

System: MV-4-11 cells
Assay: Gene expression microarray analysis (Affymetrix PrimeView) and GSEA
Assay type: cell-based, human
Parameters: RFU PODN (11730768_x_at) / Fold change /veh PODN (11730768_x_at) / RFU LINC00158 (11744669_a_at) / Fold change /veh LINC00158 (11744669_a_at) / RFU DUSP10 (11751237_a_at) / Fold change /veh DUSP10 (11751237_a_at) / RFU ID3 (11757404_x_at) / Fold change /veh ID3 (11757404_x_at) / RFU PLEKHG5 (11737974_s_at) / Fold change /veh PLEKHG5 (11737974_s_at) / RFU LRRC4B (11730491_at) / Fold change /veh LRRC4B (11730491_at) / RFU GIMAP4 (11747438_a_at) / Fold change /veh GIMAP4 (11747438_a_at) / RFU KRT8 (11758183_x_at) / Fold change /veh KRT8 (11758183_x_at) / RFU CNN1 (11734310_a_at) / Fold change /veh CNN1 (11734310_a_at) / RFU VPS37D (11726825_at) / Fold change /veh VPS37D (11726825_at) / RFU C10orf10 (11716522_x_at) / Fold change /veh C10orf10 (11716522_x_at) / RFU KIR2DL2 /// KIR2DL4 /// KIR2DL5A /// KIR2DL5B /// KIR2DS1 /// KIR2DS2 /// KIR2DS3 /// KIR2DS4 /// KIR3DL3 /// KIR3DL3 /// KIR3DS1 (11738374_at) / Fold change /veh KIR2DL2 /// KIR2DL4 /// KIR2DL5A /// KIR2DL5B /// KIR2DS1 /// KIR2DS2 /// KIR2DS3 /// KIR2DS4 /// KIR3DL3 /// KIR3DL3 /// KIR3DS1 (11738374_at) / RFU C1QL1 (11718748_at) / Fold change /veh C1QL1 (11718748_at) / RFU TMPRSS4 (11747572_a_at) / Fold change /veh TMPRSS4 (11747572_a_at) / RFU HAMP (11756126_x_at) / Fold change /veh HAMP (11756126_x_at) / RFU RNFT2 (11725882_a_at) / Fold change /veh RNFT2 (11725882_a_at) / RFU NR4A2 (11747474_a_at) / Fold change /veh NR4A2 (11747474_a_at) / RFU ABCC12 (11746883_a_at) / Fold change /veh ABCC12 (11746883_a_at) / RFU TMEM136 (11760407_x_at) / Fold change /veh TMEM136 (11760407_x_at) / RFU CLDN22 /// WWC2 (11732394_at) / Fold change /veh CLDN22 /// WWC2 (11732394_at) / RFU HLA-DPB1 (11760878_x_at) / Fold change /veh HLA-DPB1 (11760878_x_at) / RFU SPINT1 (11716480_a_at) / Fold change /veh SPINT1 (11716480_a_at) / RFU GAP43 (11754022_s_at) / Fold change /veh GAP43 (11754022_s_at) / RFU A4GNT (11735810_at) / Fold change /veh A4GNT (11735810_at) / RFU PRB3 (11715151_x_at) / Fold change /veh PRB3 (11715151_x_at) / RFU TUBB4B (11761932_at) / Fold change /veh TUBB4B (11761932_at) / RFU CAPN14 (11732068_a_at) / Fold change /veh CAPN14 (11732068_a_at) / RFU TMCC2 (11721928_a_at) / Fold change /veh TMCC2 (11721928_a_at) / RFU IRGQ (11745062_a_at) / Fold change /veh IRGQ (11745062_a_at) / RFU FAM174B (11720279_a_at) / Fold change /veh FAM174B (11720279_a_at) / RFU TMPRSS4 (11748680_a_at) / Fold change /veh TMPRSS4 (11748680_a_at) / RFU FAM212B (11763350_a_at) / Fold change /veh FAM212B (11763350_a_at) / RFU PLEKHG5 (11743358_a_at) / Fold change /veh PLEKHG5 (11743358_a_at) / RFU ZSCAN30 (11745921_a_at) / Fold change /veh ZSCAN30 (11745921_a_at) / RFU CMKLR1 (11741424_a_at) / Fold change /veh CMKLR1 (11741424_a_at) / RFU LOC101060620 /// MAPK8IP1 (11723275_at) / Fold change /veh LOC101060620 /// MAPK8IP1 (11723275_at) / RFU SPTSSB (11747773_x_at) / Fold change /veh SPTSSB (11747773_x_at) / RFU PRSS12 (11739890_at) / Fold change /veh PRSS12 (11739890_at) / RFU BIN1 (11741810_x_at) / Fold change /veh BIN1 (11741810_x_at) / RFU WNT11 (11732464_a_at) / Fold change /veh WNT11 (11732464_a_at) / RFU C10orf10 (11716521_a_at) / Fold change /veh C10orf10 (11716521_a_at) / RFU C5orf56 (11738089_at) / Fold change /veh C5orf56 (11738089_at) / RFU CYB561 (11721691_x_at) / Fold change /veh CYB561 (11721691_x_at) / RFU ANKRD19P (11752326_a_at) / Fold change /veh ANKRD19P (11752326_a_at) / RFU OR2T12 /// OR2T33 /// OR2T8 (11738714_s_at) / Fold change /veh OR2T12 /// OR2T33 /// OR2T8 (11738714_s_at) / RFU VCAN (11748164_a_at) / Fold change /veh VCAN (11748164_a_at) / RFU JSRP1 (11732532_at) / Fold change /veh JSRP1 (11732532_at) / RFU KRTAP10-11 (11738290_x_at) / Fold change /veh KRTAP10-11 (11738290_x_at) / RFU MYO3A (11730013_a_at) / Fold change /veh MYO3A (11730013_a_at) / RFU EBF3 (11725865_a_at) / Fold change /veh EBF3 (11725865_a_at) / RFU CAMK2N1 (11719241_x_at) / Fold change /veh CAMK2N1 (11719241_x_at) / RFU C5orf56 (11738088_a_at) / Fold change /veh C5orf56 (11738088_a_at) / RFU OLFML3 (11715873_a_at) / Fold change /veh OLFML3 (11715873_a_at) / RFU LOC100653217 /// NTM (11731650_a_at) / Fold change /veh LOC100653217 /// NTM (11731650_a_at) / RFU MAPK11 (11762145_a_at) / Fold change /veh MAPK11 (11762145_a_at) / RFU FIZ1 (11724087_x_at) / Fold change /veh FIZ1 (11724087_x_at) / RFU OASL (11726364_x_at) / Fold change /veh OASL (11726364_x_at) / RFU SOX15 (11748057_x_at) / Fold change /veh SOX15 (11748057_x_at) / RFU CD79A (11719716_a_at) / Fold change /veh CD79A (11719716_a_at) / RFU HIST1H1D (11736915_at) / Fold change /veh HIST1H1D (11736915_at) / RFU CASKIN2 (11723855_a_at) / Fold change /veh CASKIN2 (11723855_a_at) / RFU LOC730098 (11760151_x_at) / Fold change /veh LOC730098 (11760151_x_at) / RFU OR4N2 (11742367_at) / Fold change /veh OR4N2 (11742367_at) / RFU PRRT2 (11749266_a_at) / Fold change /veh PRRT2 (11749266_a_at) / RFU SNX32 (11753110_a_at) / Fold change /veh SNX32 (11753110_a_at) / RFU CDHR5 (11726645_a_at) / Fold change /veh CDHR5 (11726645_a_at) / RFU RCAN1 (11760418_a_at) / Fold change /veh RCAN1 (11760418_a_at) / RFU FAM167A (11723789_a_at) / Fold change /veh FAM167A (11723789_a_at) / RFU FAM26E (11764081_at) / Fold change /veh FAM26E (11764081_at) / RFU ISYNA1 (11749810_s_at) / Fold change /veh ISYNA1 (11749810_s_at) / RFU ACY1 (11761880_at) / Fold change /veh ACY1 (11761880_at) / RFU 11764098_at / Fold change /veh 11764098_at / RFU SAMD14 (11745864_x_at) / Fold change /veh SAMD14 (11745864_x_at) / RFU NPB (11741838_a_at) / Fold change /veh NPB (11741838_a_at) / RFU TMPRSS6 (11731388_a_at) / Fold change /veh TMPRSS6 (11731388_a_at) / RFU KRTAP10-2 (11738614_at) / Fold change /veh KRTAP10-2 (11738614_at) / RFU ARHGAP8 /// PRR5-ARHGAP8 (11727945_x_at) / Fold change /veh ARHGAP8 /// PRR5-ARHGAP8 (11727945_x_at) / RFU KRTAP5-7 /// NADSYN1 (11734609_at) / Fold change /veh KRTAP5-7 /// NADSYN1 (11734609_at) / RFU RASL12 (11751679_a_at) / Fold change /veh RASL12 (11751679_a_at) / RFU CDKN2B (11736163_a_at) / Fold change /veh CDKN2B (11736163_a_at) / RFU PRF1 (11729649_at) / Fold change /veh PRF1 (11729649_at) / RFU, ZNF638 /// ZNF638-IT1 / Fold change vs veh, ZNF638 /// ZNF638-IT1 / RFU, PANK3 / Fold change vs veh, PANK3 / RFU, SH3YL1 / Fold change vs veh, SH3YL1 / RFU, ZEB2 / Fold change vs veh, ZEB2 / RFU, NRIP1 / Fold change vs veh, NRIP1 / RFU, PTTG1IP / Fold change vs veh, PTTG1IP / RFU, CAPN2 / Fold change vs veh, CAPN2 / RFU, MED14 / Fold change vs veh, MED14 / RFU, SNORA58 / Fold change vs veh, SNORA58 / RFU, C1orf63 / Fold change vs veh, C1orf63 / RFU, LRRFIP1 / Fold change vs veh, LRRFIP1 / RFU, NDUFAF7 / Fold change vs veh, NDUFAF7 / RFU, SLC12A2 / Fold change vs veh, SLC12A2 / RFU, IBTK / Fold change vs veh, IBTK / RFU, ESF1 / Fold change vs veh, ESF1 / Fold change vs veh, TMEM50B / RFU, TAOK1 / Fold change vs veh, TAOK1 / RFU, ACBD3 / Fold change vs veh, ACBD3 / RFU, TMA16 / Fold change vs veh, TMA16 / RFU, RWDD3 / Fold change vs veh, RWDD3 / RFU, BCAT1 / Fold change vs veh, BCAT1 / RFU, EDEM3 / Fold change vs veh, EDEM3 / RFU, TMEM33 / Fold change vs veh, TMEM33 / RFU, WDR75 / Fold change vs veh, WDR75 / RFU, AHCTF1 / Fold change vs veh, AHCTF1 / RFU, TFRC / Fold change vs veh, TFRC / RFU, ZDHHC17 / Fold change vs veh, ZDHHC17 / RFU, NOM1 / Fold change vs veh, NOM1 / RFU, ARL8B / Fold change vs veh, ARL8B / RFU, ZBTB11 / Fold change vs veh, ZBTB11 / RFU, TAMM41 / Fold change vs veh, TAMM41 / RFU, KIAA1704 /// LOC100996395 / Fold change vs veh, KIAA1704 /// LOC100996395 / RFU, ING1 / Fold change vs veh, ING1 / RFU, TRMT61B / Fold change vs veh, TRMT61B / RFU, FUBP3 / Fold change vs veh, FUBP3 / RFU, TP53 / Fold change vs veh, TP53 / RFU, TNKS2 / Fold change vs veh, TNKS2 / RFU, ZFP14 / Fold change vs veh, ZFP14 / RFU, ACTR2 / Fold change vs veh, ACTR2 / RFU, PPP3R1 / Fold change vs veh, PPP3R1 / RFU, PIK3R1 / Fold change vs veh, PIK3R1 / RFU, HNRNPA1 / Fold change vs veh, HNRNPA1 / RFU, RNF170 / Fold change vs veh, RNF170 / RFU, ZNF28 / Fold change vs veh, ZNF28 / RFU, RNGTT / Fold change vs veh, RNGTT / RFU, OGT / Fold change vs veh, OGT / RFU, BRD1 / Fold change vs veh, BRD1 / RFU, MARS / Fold change vs veh, MARS / RFU, ZNF655 / Fold change vs veh, ZNF655 / RFU, FAHD1 / Fold change vs veh, FAHD1 / RFU, BDP1 / Fold change vs veh, BDP1 / RFU, LRRCC1 / Fold change vs veh, LRRCC1 / RFU, ARID1A / Fold change vs veh, ARID1A / RFU, ZNF146 / Fold change vs veh, ZNF146 / RFU, ZNF330 / Fold change vs veh, ZNF330 / RFU, GPN3 / Fold change vs veh, GPN3 / RFU, C9orf123 / Fold change vs veh, C9orf123 / RFU, N4BP2L2 / Fold change vs veh, N4BP2L2 / RFU, ARFIP1 / Fold change vs veh, ARFIP1 / RFU, FAM179B / Fold change vs veh, FAM179B / RFU, BCL10 / Fold change vs veh, BCL10 / RFU, UHRF1BP1L / Fold change vs veh, UHRF1BP1L / RFU, BET1 / Fold change vs veh, BET1 / RFU, CNOT2 / Fold change vs veh, CNOT2 / RFU, ZNF268 / Fold change vs veh, ZNF268 / Fold change vs veh, ZNF507 / RFU, DGCR2 / Fold change vs veh, DGCR2 / RFU, WDSUB1 / Fold change vs veh, WDSUB1 / Fold change vs veh, HSP90B1 /// MIR3652 / RFU, ADSS / Fold change vs veh, ADSS / RFU, GK / Fold change vs veh, GK / RFU, ZNF148 / Fold change vs veh, ZNF148 / RFU, TAF9 / Fold change vs veh, TAF9 / RFU, SLC1A5 / Fold change vs veh, SLC1A5 / RFU, SLMO2 / Fold change vs veh, SLMO2 / RFU, ABCC4 / Fold change vs veh, ABCC4 / RFU, LOC101060439 /// RAP1B / Fold change vs veh, LOC101060439 /// RAP1B / RFU, RFX7 / Fold change vs veh, RFX7 / RFU, GTPBP10 / Fold change vs veh, GTPBP10 / RFU, CNEP1R1 / Fold change vs veh, CNEP1R1 / RFU, BIVM-ERCC5 /// ERCC5 / Fold change vs veh, BIVM-ERCC5 /// ERCC5 / RFU, ILF3 / Fold change vs veh, ILF3 / RFU 11762660_at / Fold change /veh 11762660_at / RFU VCAN (11757783_s_at) / Fold change /veh VCAN (11757783_s_at) / RFU DDX43 (11728927_at) / Fold change /veh DDX43 (11728927_at) / RFU KRT8 (11758188_x_at) / Fold change /veh KRT8 (11758188_x_at) / RFU NKD1 (11759106_at) / Fold change /veh NKD1 (11759106_at) / RFU SRD5A1 (11742802_a_at) / Fold change /veh SRD5A1 (11742802_a_at) / RFU TPSAB1 /// TPSB2 (11721975_s_at) / Fold change /veh TPSAB1 /// TPSB2 (11721975_s_at) / RFU GSTM3 (11746129_a_at) / Fold change /veh GSTM3 (11746129_a_at) / RFU IL23R (11737362_x_at) / Fold change /veh IL23R (11737362_x_at) / RFU TMEM51 (11727254_a_at) / Fold change /veh TMEM51 (11727254_a_at) / RFU PIWIL2 (11732686_x_at) / Fold change /veh PIWIL2 (11732686_x_at) / RFU ORM1 (11744905_x_at) / Fold change /veh ORM1 (11744905_x_at) / RFU CCDC152 (11743942_at) / Fold change /veh CCDC152 (11743942_at) / RFU ECM1 (11717891_a_at) / Fold change /veh ECM1 (11717891_a_at) / RFU IL23R (11748794_a_at) / Fold change /veh IL23R (11748794_a_at) / RFU TNFAIP8L3 (11732012_x_at) / Fold change /veh TNFAIP8L3 (11732012_x_at) / RFU MBOAT4 (11741988_at) / Fold change /veh MBOAT4 (11741988_at) / RFU 11764193_at / Fold change /veh 11764193_at / RFU TMEM53 (11763286_at) / Fold change /veh TMEM53 (11763286_at) / RFU MAGEB2 (11727129_at) / Fold change /veh MAGEB2 (11727129_at) / RFU TMEM200A (11744735_a_at) / Fold change /veh TMEM200A (11744735_a_at) / RFU CCDC152 (11751479_a_at) / Fold change /veh CCDC152 (11751479_a_at) / RFU FAM211A (11726209_a_at) / Fold change /veh FAM211A (11726209_a_at) / RFU RGS16 (11746705_a_at) / Fold change /veh RGS16 (11746705_a_at) / RFU VCAN (11755009_s_at) / Fold change /veh VCAN (11755009_s_at) / RFU RHOB (11743442_s_at) / Fold change /veh RHOB (11743442_s_at) / RFU RGS16 (11720943_a_at) / Fold change /veh RGS16 (11720943_a_at) / RFU RGS16 (11720944_at) / Fold change /veh RGS16 (11720944_at) / RFU, VPS4B / Fold change vs veh, VPS4B / RFU, CREB1 / Fold change vs veh, CREB1 / RFU, DNAJC13 / Fold change vs veh, DNAJC13 / RFU, GNAQ / Fold change vs veh, GNAQ / RFU, CDK5R1 / Fold change vs veh, CDK5R1 / RFU, ZRANB3 / Fold change vs veh, ZRANB3 / RFU, CUL4A / Fold change vs veh, CUL4A / RFU, CCNY / Fold change vs veh, CCNY / RFU, UFL1 / Fold change vs veh, UFL1 / RFU, COG3 / Fold change vs veh, COG3 / RFU, DIAPH2 / Fold change vs veh, DIAPH2 / RFU, SKA2 / Fold change vs veh, SKA2 / RFU, AFF3 / Fold change vs veh, AFF3 / RFU, LMF1 / Fold change vs veh, LMF1 / RFU, IPO11 / Fold change vs veh, IPO11 / RFU, DFFB / Fold change vs veh, DFFB / RFU, FOXP1 / Fold change vs veh, FOXP1 / RFU, CARD8 / Fold change vs veh, CARD8 / RFU, STRN3 / Fold change vs veh, STRN3 / RFU, ADK / Fold change vs veh, ADK / RFU, RASSF2 / Fold change vs veh, RASSF2 / RFU, WIPF1 / Fold change vs veh, WIPF1 / RFU, LARP1B / Fold change vs veh, LARP1B / RFU, RASA1 / Fold change vs veh, RASA1 / RFU, RB1 / Fold change vs veh, RB1 / RFU, PPFIA1 / Fold change vs veh, PPFIA1 / RFU, MAT2A / Fold change vs veh, MAT2A / RFU, CCT5 / Fold change vs veh, CCT5 / RFU, WDR92 / Fold change vs veh, WDR92 / RFU, CUX1 / Fold change vs veh, CUX1 / RFU, TTC7A / Fold change vs veh, TTC7A / RFU, TMEM135 / Fold change vs veh, TMEM135 / RFU, DEPTOR / Fold change vs veh, DEPTOR / RFU, CPM / Fold change vs veh, CPM / RFU, DNAJB6 / Fold change vs veh, DNAJB6 / RFU, CACNA2D3 / Fold change vs veh, CACNA2D3 / RFU, DTX4 / Fold change vs veh, DTX4 / RFU, TFCP2 / Fold change vs veh, TFCP2 / RFU, GMCL1 /// GMCL1P1 / Fold change vs veh, GMCL1 /// GMCL1P1 / RFU, AEBP2 / Fold change vs veh, AEBP2 / RFU, SNHG1 /// SNORD22 /// SNORD25 /// SNORD26 /// SNORD27 /// SNORD28 /// SNORD29 /// SNORD31 / Fold change vs veh, SNHG1 /// SNORD22 /// SNORD25 /// SNORD26 /// SNORD27 /// SNORD28 /// SNORD29 /// SNORD31 / Fold change (Aza/veh), C12orf56 (ProbeSet 11735607_a_at) / Fold change (ACY-1035/veh), C12orf56 (ProbeSet 11735607_a_at) / Fold change (Aza/veh), FGFR1OP (ProbeSet 11751329_s_at) / Fold change (ACY-1035/veh), FGFR1OP (ProbeSet 11751329_s_at) / Fold change (Aza/veh), VPS36 (ProbeSet 11739960_a_at) / Fold change (ACY-1035/veh), VPS36 (ProbeSet 11739960_a_at) / RFU SYPL1 (11715823_x_at) / Fold change /veh SYPL1 (11715823_x_at) / RFU IGFBP7 (11715501_s_at) / Fold change /veh IGFBP7 (11715501_s_at) / RFU REEP3 (11722064_at) / Fold change /veh REEP3 (11722064_at) / RFU IGLL1 (11728026_x_at) / Fold change /veh IGLL1 (11728026_x_at): dose or concentration left out as unconfirmed
Conditions: MV-4-11 cells, 48 hours

## Nc1ccc(-c2cccs2)cc1NC(=O)c1ccc2c(c1)cc(C1CC1)n2CCN1CCOCC1 [ACY-1035]
  RFU BIN1 (11741810_x_at): 33.72 RFU
